Laboratory results: patent publication US10981926B2 (Janssen Pharmaceutica NV, priority 2016, dated 2021)

How the values were obtained:
[1] = target: T1, wild-type Androgen Receptor (AR-wt) (Homo sapiens (Human), UniProt P10275); assay: LNCaP-AR-wt ANT reporter assay (antagonist mode); type: cell-based; settings: for IC50 / LNCaP-AR-wt ANT pIC50: antagonist mode, pIC50 = −Log10(IC50 in Molar); for IC50: read-out: LNCaP-AR-wt ANT pIC50 (converted); for Emax: read-out: LNCaP-AR-wt ANT MAX % Inh
[2] = target: T1, wild-type Androgen Receptor (AR-wt); assay: LNCaP-AR-wt AG reporter assay (agonist mode); type: cell-based; settings: for EC50 / LNCaP-AR-wt AG pEC50: agonist mode, pEC50 = −Log10(EC50 in Molar); for EC50: read-out: LNCaP-AR-wt AG pEC50 (converted); for Emax: read-out: LNCaP-AR-wt AG MAX % Stim
[3] = target: T2, F876L mutant Androgen Receptor (AR-F876L) (Homo sapiens (Human), UniProt P10275, F877L); assay: LNCaP-AR-F876L ANT reporter assay (antagonist mode); type: cell-based; settings: for IC50: read-out: LNCaP-AR-F876L ANT pIC50 (converted); for Emax: read-out: LNCaP-AR-F876L ANT MAX % Inh
[4] = target: T2, F876L mutant Androgen Receptor (AR-F876L); assay: LNCaP-AR-F876L AG reporter assay (agonist mode); type: cell-based; settings: for EC50 / LNCaP-AR-F876L AG pEC50: agonist mode, pEC50 = −Log10(EC50 in Molar); for EC50: read-out: LNCaP-AR-F876L AG pEC50 (converted); for Emax: read-out: LNCaP-AR-F876L AG MAX % Stim
rGABA-gated Cl− channel = assay: GABA-Gated Cl Channel Antagonist Radioligand Binding Assay; design: species or system rat; settings: 10 μM single point, [35S]-TBPS, cerebral cortex membrane homogenates
Method in brief: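 Rat cerebral cortex membranes (120 μg protein) incubated 120 min at 22° C with 3 nM […] in 50 mM Na2HPO4/KH2PO4 pH 7.4, 500 mM NaCl; nonspecific binding defined with 20 μM picrotoxinin. Bound label counted after filtration; values are percent inhibition of specific binding at 10 μM compound.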

[5] = maximum % inhibition of R1881 control response over the tested concentration range
[6] = maximum % stimulation (agonist response) over the tested concentration range
[7] = antagonist mode, pIC50 = −Log10(IC50 in Molar)

T1 sequence (P10275 whole entry): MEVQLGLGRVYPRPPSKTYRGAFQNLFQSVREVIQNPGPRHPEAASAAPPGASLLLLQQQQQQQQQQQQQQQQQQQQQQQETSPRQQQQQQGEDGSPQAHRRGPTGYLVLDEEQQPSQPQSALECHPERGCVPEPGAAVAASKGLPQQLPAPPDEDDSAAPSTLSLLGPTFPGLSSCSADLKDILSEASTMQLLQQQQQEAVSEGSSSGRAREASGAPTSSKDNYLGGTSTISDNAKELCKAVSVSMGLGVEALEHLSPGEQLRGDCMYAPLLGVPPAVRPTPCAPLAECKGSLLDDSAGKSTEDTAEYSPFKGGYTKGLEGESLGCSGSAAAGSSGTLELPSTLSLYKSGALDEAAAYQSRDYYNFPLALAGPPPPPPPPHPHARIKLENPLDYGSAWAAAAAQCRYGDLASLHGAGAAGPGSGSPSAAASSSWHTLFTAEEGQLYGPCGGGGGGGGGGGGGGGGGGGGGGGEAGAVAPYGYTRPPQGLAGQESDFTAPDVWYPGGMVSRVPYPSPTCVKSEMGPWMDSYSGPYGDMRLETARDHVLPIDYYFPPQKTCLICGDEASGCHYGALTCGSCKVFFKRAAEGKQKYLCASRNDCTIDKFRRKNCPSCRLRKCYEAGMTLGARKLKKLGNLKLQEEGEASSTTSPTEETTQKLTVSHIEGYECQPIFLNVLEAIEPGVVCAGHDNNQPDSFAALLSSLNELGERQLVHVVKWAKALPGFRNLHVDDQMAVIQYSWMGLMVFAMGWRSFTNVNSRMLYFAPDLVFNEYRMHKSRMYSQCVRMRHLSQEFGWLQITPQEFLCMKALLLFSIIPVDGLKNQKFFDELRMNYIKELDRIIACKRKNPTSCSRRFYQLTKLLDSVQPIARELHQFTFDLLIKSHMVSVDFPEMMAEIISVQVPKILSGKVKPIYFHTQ
T2 sequence (P10275 whole entry F877L): as the sequence (P10275 whole entry) above, with F877L counted along it

Compound	IC50 [1]	Emax [1, 5]	EC50 [2]	Emax [2, 6]	IC50 [3, 7]	Emax [3, 5]	EC50 [4]	Emax [4, 6]	rGABA-gated Cl− channel % inh @10 μM (rGABA-gated Cl− channel)	LNCaP-AR-wt ANT pIC50 [1]	LNCaP-AR-wt ANT MAX % Inh [1, 5]	LNCaP-AR-wt AG pEC50 [2]	LNCaP-AR-wt AG MAX % Stim [2, 6]	LNCaP-AR-F876L ANT pIC50 [3, 7]	LNCaP-AR-F876L ANT MAX % Inh [3, 5]	LNCaP-AR-F876L AG pEC50 [4]	LNCaP-AR-F876L AG MAX % Stim [4, 6]
CC1COC(COc2ccc(N3C(=S)N(c4cnc(C#N)c(C(F)(F)F)c4)C(=O)C34CCC4)cc2)CN1 [Cpd 91, (R,S),(R,S)-5-[8-[4-[(5-methylmorpholin-2-yl)methoxy]phenyl]-5-oxo-7-thioxo-6,8-diazaspiro[3.4]octan-6-yl]-3-(trifluoromethyl)pyridine-2-carbonitrile]	–	–	–	–	–	–	–	–	36.7%	7.33	98.3%	<4.82	0.6%	7.49	98.6%	<4.82	0.4%
N#Cc1ncc(N2C(=O)C3(CCC3)N(c3ccc(OC4CC5CCC(N5)C4F)cc3)C2=S)cc1C(F)(F)F (stereo not drawn) [Cpd 93, 5-[8-[4-[(4-fluoro-8-azabicyclo[3.2.1]octan-3-yl)oxy]phenyl]-5-oxo-7-thioxo-6,8-diazaspiro[3.4]octan-6-yl]-3-(trifluoromethyl)pyridine-2-carbonitrile]	–	105%	–	0.5%	45.7 nM	102%	–	0.2%	74.4%	6.77	–	<4.82	–	–	–	<4.82	–
CN1C2CCC1C(F)C(Oc1ccc(N3C(=S)N(c4cnc(C#N)c(C(F)(F)F)c4)C(=O)C34CCC4)cc1)C2 (stereo not drawn) [Cpd 94, 5-[8-[4-[(4-fluoro-8-methyl-8-azabicyclo[3.2.1]octan-3-yl)oxy]phenyl]-5-oxo-7-thioxo-6,8-diazaspiro[3.4]octan-6-yl]-3-(trifluoromethyl)pyridine-2-carbonitrile]	–	101%	–	0.8%	70.8 nM	101%	–	0.2%	91.0%	6.78	–	<4.82	–	–	–	<4.82	–
N#Cc1ncc(N2C(=O)C3(CCC3)N(c3ccc(OCCN4CC5(COC5)C4)cc3)C2=S)cc1C(F)(F)F [Cpd 105, 5-[8-[4-[2-(6-oxa-2-azaspiro[3.3]heptan-2-yl)ethoxy]phenyl]-5-oxo-7-thioxo-6,8-diazaspiro[3.4]octan-6-yl]-3-(trifluoromethyl)pyridine-2-carbonitrile]	123 nM	100%	> 15100 nM	0.1%	66.1 nM	97.6%	> 15100 nM	0.8%	23.9%	–	–	–	–	–	–	–	–
N#Cc1ncc(N2C(=O)C3(CCC3)N(c3ccc4c(c3)CCNC4)C2=S)cc1C(F)(F)F [Cpd 108, 5-(8-oxo-5-(1,2,3,4-tetrahydroisoquinolin-6-yl)-6-thioxo-5,7-diazaspiro[3.4]octan-7-yl)-3-(trifluoromethyl)picolinonitrile]	1660 nM	98.3%	> 15100 nM	0.7%	1020 nM	94.8%	> 15100 nM	0.2%	17.1%	–	–	–	–	–	–	–	–
N#Cc1ncc(N2C(=O)C3(CCC3)N(c3ccc(OC4CCCO4)cc3)C2=S)cc1C(F)(F)F (stereo not drawn) [Cpd 111, 5-[5-oxo-8-(4-tetrahydrofuran-2-yloxyphenyl)-7-thioxo-6,8-diazaspiro[3.4]octan-6-yl]-3-(trifluoromethyl)pyridine-2-carbonitrile]	132 nM	101%	> 15100 nM	0.8%	117 nM	101%	> 15100 nM	0.4%	2.8%	–	–	–	–	–	–	–	–

The next lines start with results.

IC50 [1]	Emax [1, 5]	EC50 [2]	Emax [2, 6]	IC50 [3, 7]	Emax [3, 5]	EC50 [4]	Emax [4, 6]	rGABA-gated Cl− channel % inh @10 μM (rGABA-gated Cl− channel)	Compound	LNCaP-AR-wt ANT pIC50 [1]	LNCaP-AR-wt ANT MAX % Inh [1, 5]	LNCaP-AR-wt AG pEC50 [2]	LNCaP-AR-wt AG MAX % Stim [2, 6]	LNCaP-AR-F876L ANT pIC50 [3, 7]	LNCaP-AR-F876L ANT MAX % Inh [3, 5]	LNCaP-AR-F876L AG pEC50 [4]	LNCaP-AR-F876L AG MAX % Stim [4, 6]
74.1 nM	102%	> 15100 nM	0.4%	33.1 nM	99.5%	> 15100 nM	0.4%	49.7%	C=CCN1CCC(Oc2ccc(N3C(=S)N(c4cnc(C#N)c(C(F)(F)F)c4)C(=O)C34CCC4)cn2)CC1 [Cpd 88, 5-[8-[6-[(1-allyl-4-piperidyl)oxy]-3-pyridyl]-5-oxo-7-thioxo-6,8-diazaspiro[3.4]octan-6-yl]-3-(trifluoromethyl)pyridine-2-carbonitrile]	–	–	–	–	–	–	–	–
89.1 nM	99.7%	> 15100 nM	0.6%	67.6 nM	99.3%	> 15100 nM	0.9%	20.8%	Cc1cc(N2C(=O)C3(CCC3)N(c3ccc(OC4CCN(CC#N)CC4)nc3)C2=S)cnc1C#N [Cpd 90, 5-[8-[6-[[1-(cyanomethyl)-4-piperidyl]oxy]-3-pyridyl]-5-oxo-7-thioxo-6,8-diazaspiro[3.4]octan-6-yl]-3-methyl-pyridine-2-carbonitrile]	–	–	–	–	–	–	–	–
55 nM	102%	> 15100 nM	0%	25.1 nM	99.9%	> 15100 nM	0.2%	4.0%	CN1CC2(CC(Oc3ccc(N4C(=S)N(c5cnc(C#N)c(C(F)(F)F)c5)C(=O)C45CCC5)cc3)C2)C1 [Cpd 97, 5-[8-[4-[(6-methyl-6-azaspiro[3.3]heptan-2-yl)oxy]phenyl]-5-oxo-7-thioxo-6,8-diazaspiro[3.4]octan-6-yl]-3-(trifluoromethyl)pyridine-2-carbonitrile]	–	–	–	–	–	–	–	–
46.8 nM	101%	> 15100 nM	0.3%	20.9 nM	100%	> 15100 nM	0.1%	−7.6%	COCCN1CCC(Oc2ccc(N3C(=S)N(c4cnc(C#N)c(C)c4)C(=O)C34CCC4)cn2)CC1 [Cpd 98, 5-[8-[6-[[1-(2-methoxyethyl)-4-piperidyl]oxy]-3-pyridyl]-5-oxo-7-thioxo-6,8-diazaspiro[3.4]octan-6-yl]-3-methyl-pyridine-2-carbonitrile]	–	–	–	–	–	–	–	–
162 nM	100%	> 15100 nM	0.1%	58.9 nM	98.9%	> 15100 nM	0.5%	2.3%	Cc1cc(N2C(=O)C3(CCC3)N(c3ccc(OC4CCN(CCO)CC4)nc3)C2=S)cnc1C#N [Cpd 100, 5-[8-[6-[[1-(2-hydroxyethyl)-4-piperidyl]oxy]-3-pyridyl]-5-oxo-7-thioxo-6,8-diazaspiro[3.4]octan-6-yl]-3-methyl-pyridine-2-carbonitrile]	–	–	–	–	–	–	–	–
69.2 nM	101%	> 15100 nM	0.5%	41.7 nM	99.6%	> 15100 nM	0.7%	98.9%	C#CCN1CCC(Oc2ccc(N3C(=S)N(c4cnc(C#N)c(C(F)(F)F)c4)C(=O)C34CCC4)cn2)CC1 [Cpd 104, 5-[5-oxo-8-[6-[(1-prop-2-ynyl-4-piperidyl)oxy]-3-pyridyl]-7-thioxo-6,8-diazaspiro[3.4]octan-6-yl]-3-(trifluoromethyl)pyridine-2-carbonitrile]	–	–	–	–	–	–	–	–
22.9 nM	101%	> 15100 nM	0.5%	24.5 nM	97.5%	> 15100 nM	1.9%	87.2%	C#CCN1CCC(Oc2ccc(N3C(=S)N(c4cnc(C#N)c(C(F)(F)F)c4)C(=O)C34CCC4)cc2)CC1 [Cpd 107, 5-[5-oxo-8-[4-[(1-prop-2-ynyl-4-piperidyl)oxy]phenyl]-7-thioxo-6,8-diazaspiro[3.4]octan-6-yl]-3-(trifluoromethyl)pyridine-2-carbonitrile]	–	–	–	–	–	–	–	–
2820 nM	96.1%	> 15100 nM	0%	1350 nM	98.8%	> 15100 nM	0.2%	20.6%	CN1CCC(n2ncc3cc(N4C(=S)N(c5cnc(C#N)c(C(F)(F)F)c5)C(=O)C45CCC5)ccc32)CC1 [Cpd 109, 5-[8-[1-(1-methyl-4-piperidyl)indazol-5-yl]-5-oxo-7-thioxo-6,8-diazaspiro[3.4]octan-6-yl]-3-(trifluoromethyl)pyridine-2-carbonitrile]	–	–	–	–	–	–	–	–
